Source: ChEMBL document CHEMBL5316339, “Discovery of a Series of Substituted 1H-((1,2,3-Triazol-4-yl)methoxy)pyrimidines as Brain Penetrants and Potent GluN2B-Selective Negative Allosteric Modulators” (J Med Chem, 2023)
pIC50, pKi: −log10 of the molar value. ≈ marks a conversion by molar mass, not a printed value. Blank lines part the entries; values can stand above or below the compound they belong to.

Experiments:
[1] = target: Cytochrome P450 3A4 (Homo sapiens, UniProt P08684); experiment: Inhibition of CYP3A4 in human liver microsomes incubated for 10 mins by LC-MS/MS analysis; assay type: ADME, Microsome
Chain of Cytochrome P450 3A4 (P08684 whole entry): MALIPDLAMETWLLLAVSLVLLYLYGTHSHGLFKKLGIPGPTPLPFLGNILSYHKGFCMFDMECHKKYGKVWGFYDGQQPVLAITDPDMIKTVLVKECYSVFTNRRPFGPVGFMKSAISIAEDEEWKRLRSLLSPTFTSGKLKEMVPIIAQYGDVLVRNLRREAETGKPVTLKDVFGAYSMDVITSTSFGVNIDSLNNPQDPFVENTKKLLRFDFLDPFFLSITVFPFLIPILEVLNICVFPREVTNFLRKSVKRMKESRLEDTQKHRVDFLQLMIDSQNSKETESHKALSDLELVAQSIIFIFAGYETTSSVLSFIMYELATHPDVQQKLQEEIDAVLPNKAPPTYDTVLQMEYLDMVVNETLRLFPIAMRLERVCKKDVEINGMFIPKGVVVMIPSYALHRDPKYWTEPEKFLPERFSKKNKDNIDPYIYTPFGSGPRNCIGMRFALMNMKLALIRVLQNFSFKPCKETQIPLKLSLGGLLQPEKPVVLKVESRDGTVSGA

[2] = Volume of distribution at steady state in Sprague-Dawley rat at 5 mg/kg, po or 1 mg/kg, iv measured for 24 hrs by LC-MS/MS analysis; assay type: ADME, organism-based; settings: in vivo
[3] = system: Brain; experiment: Ex vivo receptor occupancy at GluN2B receptor in Sprague-Dawley rat brain at 10 mg/kg, po measured after 2 hrs by 3 [3H] 1-(azetidin- 1-yl-2[6-(4-fluoro-3-methyl-pheny)pyrrolo[3,2-b]pyridin-1-yl]ethanon based autoradiography relative to control; assay type: functional
[4] = Drug concentration in Sprague-Dawley rat plasma at 10 mg/kg, po measured after 0.5 hrs; assay type: ADME, organism-based
[5] = target: Cytochrome P450 2D6 (Homo sapiens, UniProt P10635); experiment: Inhibition of CYP2D6 in human liver microsomes incubated for 10 mins by LC-MS/MS analysis; assay type: ADME, Microsome
[6] = Cmax in Sprague-Dawley rat at 5 mg/kg, po measured for 24 hrs by LC-MS/MS analysis; assay type: ADME, organism-based; design: time 24 hrs, dose 5 mg/kg, route po; settings: in vivo
[7] = target: Glutamate receptor ionotropic, NMDA 2B (Rattus norvegicus, UniProt Q00960); experiment: Displacement of 3-(3H) 1-(azetidin-1-yl)-2-(6- (4-fluoro-3-methyl-phenyl)pyrrolo-[…] pyridin-1yl)ethanone from GluN2B receptor in rat cortical membrane assessed as inhibition constant incubated for 2 hrs under shaking condition by liquid scintillator counter analysis; assay type: cell membranes, Cortex
Chain of Glutamate receptor ionotropic, NMDA 2B (Q00960 whole entry): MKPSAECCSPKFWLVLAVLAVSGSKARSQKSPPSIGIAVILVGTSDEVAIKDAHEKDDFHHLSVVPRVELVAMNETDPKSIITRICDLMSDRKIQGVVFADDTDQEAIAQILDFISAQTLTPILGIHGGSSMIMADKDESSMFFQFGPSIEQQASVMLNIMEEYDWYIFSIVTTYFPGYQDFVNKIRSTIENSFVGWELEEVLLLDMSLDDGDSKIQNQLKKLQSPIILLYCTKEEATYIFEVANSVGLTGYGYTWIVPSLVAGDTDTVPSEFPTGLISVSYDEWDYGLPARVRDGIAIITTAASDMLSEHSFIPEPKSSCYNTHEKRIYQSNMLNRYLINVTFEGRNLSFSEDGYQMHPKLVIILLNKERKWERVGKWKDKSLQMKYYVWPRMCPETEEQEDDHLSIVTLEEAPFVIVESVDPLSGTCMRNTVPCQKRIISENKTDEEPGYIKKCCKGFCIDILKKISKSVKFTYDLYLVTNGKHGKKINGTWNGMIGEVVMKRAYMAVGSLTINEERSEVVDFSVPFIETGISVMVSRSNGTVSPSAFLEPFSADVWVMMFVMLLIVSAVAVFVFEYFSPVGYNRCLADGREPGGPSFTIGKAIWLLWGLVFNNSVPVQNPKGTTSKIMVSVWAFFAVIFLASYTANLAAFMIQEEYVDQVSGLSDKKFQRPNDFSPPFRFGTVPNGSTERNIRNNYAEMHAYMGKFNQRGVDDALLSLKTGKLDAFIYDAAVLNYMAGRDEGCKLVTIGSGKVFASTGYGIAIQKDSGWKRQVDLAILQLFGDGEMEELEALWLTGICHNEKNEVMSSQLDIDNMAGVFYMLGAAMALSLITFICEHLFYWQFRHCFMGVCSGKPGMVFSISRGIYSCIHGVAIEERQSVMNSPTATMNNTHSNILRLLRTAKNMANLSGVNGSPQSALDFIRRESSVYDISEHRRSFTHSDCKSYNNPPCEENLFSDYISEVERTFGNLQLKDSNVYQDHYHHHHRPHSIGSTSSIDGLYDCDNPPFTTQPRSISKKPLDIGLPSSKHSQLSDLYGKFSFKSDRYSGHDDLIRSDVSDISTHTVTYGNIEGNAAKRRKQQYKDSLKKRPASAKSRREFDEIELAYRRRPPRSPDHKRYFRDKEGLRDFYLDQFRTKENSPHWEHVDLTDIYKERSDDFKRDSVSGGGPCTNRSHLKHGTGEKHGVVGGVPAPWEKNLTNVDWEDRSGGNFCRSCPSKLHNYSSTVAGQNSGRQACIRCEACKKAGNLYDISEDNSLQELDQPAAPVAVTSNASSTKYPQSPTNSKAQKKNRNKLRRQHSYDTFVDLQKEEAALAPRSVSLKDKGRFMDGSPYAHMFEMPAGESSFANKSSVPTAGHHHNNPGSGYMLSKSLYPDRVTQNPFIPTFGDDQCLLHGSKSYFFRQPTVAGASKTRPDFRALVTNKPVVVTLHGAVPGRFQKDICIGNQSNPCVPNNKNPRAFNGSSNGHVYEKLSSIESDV

[8] = target: Cytochrome P450 2C19 (Homo sapiens, UniProt P33261); experiment: Inhibition of CYP2C19 in human liver microsomes incubated for 10 mins by LC-MS/MS analysis; assay type: ADME, Microsome
Chain of Cytochrome P450 2C19 (P33261 whole entry): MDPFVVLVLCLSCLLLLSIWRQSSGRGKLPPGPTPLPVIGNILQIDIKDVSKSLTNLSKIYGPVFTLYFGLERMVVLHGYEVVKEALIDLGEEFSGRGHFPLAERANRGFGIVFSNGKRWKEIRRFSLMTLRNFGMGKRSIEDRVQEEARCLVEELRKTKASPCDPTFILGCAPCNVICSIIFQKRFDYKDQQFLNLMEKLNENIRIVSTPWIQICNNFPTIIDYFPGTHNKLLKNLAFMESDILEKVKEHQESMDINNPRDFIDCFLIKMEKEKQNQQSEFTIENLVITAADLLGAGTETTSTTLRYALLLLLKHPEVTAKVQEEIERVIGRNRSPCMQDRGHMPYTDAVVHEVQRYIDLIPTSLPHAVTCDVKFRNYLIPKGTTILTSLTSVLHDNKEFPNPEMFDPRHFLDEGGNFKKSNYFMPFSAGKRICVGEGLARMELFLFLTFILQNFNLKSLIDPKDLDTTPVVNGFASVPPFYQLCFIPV

[9] = Drug concentration in Sprague-Dawley rat plasma at 10 mg/kg, po measured after 2 hrs; assay type: ADME, organism-based
[10] = system: Hippocampus; experiment: Ex vivo receptor occupancy at GluN2B receptor in Sprague-Dawley rat hippocampus administered orally and measured after 0.5 hrs by 3-[3H] 1-(azetidin- 1-yl-2[6-(4-fluoro-3-methyl-pheny)pyrrolo[3,2-b]pyridin-1-yl]ethanon based autoradiography; assay type: functional; settings: route po
[11] = target: Voltage-gated inwardly rectifying potassium channel KCNH2 (Homo sapiens, UniProt Q12809); experiment: Displacement of [3H]dofetilide from human ERG expressed in HEK293 cells; assay type: toxicity, cell-based
Chain of Voltage-gated inwardly rectifying potassium channel KCNH2 (Q12809 whole entry): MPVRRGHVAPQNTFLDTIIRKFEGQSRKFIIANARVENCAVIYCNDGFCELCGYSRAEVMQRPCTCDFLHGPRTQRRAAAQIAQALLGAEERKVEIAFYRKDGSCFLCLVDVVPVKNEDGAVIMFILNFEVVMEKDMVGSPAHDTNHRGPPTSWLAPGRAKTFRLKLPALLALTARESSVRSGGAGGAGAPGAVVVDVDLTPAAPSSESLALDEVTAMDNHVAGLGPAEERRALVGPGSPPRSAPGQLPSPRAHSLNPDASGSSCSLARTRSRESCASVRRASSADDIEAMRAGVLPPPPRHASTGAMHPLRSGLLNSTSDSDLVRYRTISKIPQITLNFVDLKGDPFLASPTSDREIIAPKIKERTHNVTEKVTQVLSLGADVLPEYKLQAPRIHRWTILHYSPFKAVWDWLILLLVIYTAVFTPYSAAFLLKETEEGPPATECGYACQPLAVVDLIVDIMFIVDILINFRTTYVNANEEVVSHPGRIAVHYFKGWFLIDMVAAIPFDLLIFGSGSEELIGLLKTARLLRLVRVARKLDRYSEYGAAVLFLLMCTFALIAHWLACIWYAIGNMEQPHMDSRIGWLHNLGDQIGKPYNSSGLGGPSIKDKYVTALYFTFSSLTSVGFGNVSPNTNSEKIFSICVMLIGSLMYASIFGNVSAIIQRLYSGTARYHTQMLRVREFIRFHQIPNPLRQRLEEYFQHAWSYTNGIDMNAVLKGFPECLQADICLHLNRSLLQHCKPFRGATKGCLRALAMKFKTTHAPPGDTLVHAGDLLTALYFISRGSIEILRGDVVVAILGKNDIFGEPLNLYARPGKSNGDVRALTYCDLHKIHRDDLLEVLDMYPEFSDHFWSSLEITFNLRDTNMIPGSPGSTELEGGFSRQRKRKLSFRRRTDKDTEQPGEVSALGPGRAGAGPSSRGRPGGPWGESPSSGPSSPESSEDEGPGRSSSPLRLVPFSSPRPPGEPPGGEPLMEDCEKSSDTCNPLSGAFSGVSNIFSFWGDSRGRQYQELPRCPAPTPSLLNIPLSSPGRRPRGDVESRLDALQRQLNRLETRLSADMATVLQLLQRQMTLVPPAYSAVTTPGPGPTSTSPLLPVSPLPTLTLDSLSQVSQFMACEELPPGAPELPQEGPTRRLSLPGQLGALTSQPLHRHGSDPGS

[12] = system: Brain; experiment: Ex vivo receptor occupancy at GluN2B receptor in Sprague-Dawley rat brain at 10 mg/kg, po measured after 0.5 hrs by 3 [3H] 1-(azetidin- 1-yl-2[6-(4-fluoro-3-methyl-pheny)pyrrolo[3,2-b]pyridin-1-yl]ethanon based autoradiography relative to control; assay type: functional
[13] = Drug concentration in Sprague-Dawley rat plasma at 10 mg/kg, po measured after 6 hrs; assay type: ADME, organism-based
[14] = Drug concentration in Sprague-Dawley rat brain at 10 mg/kg, po measured after 2 hrs; assay type: ADME, organism-based; settings: read-out: Ct
[15] = target: Glutamate receptor ionotropic, NMDA 2D (Homo sapiens, UniProt O15399+Q05586); experiment: Inhibition of human GluN2D receptor by FLIPR assay
[16] = Thermodynamic solubility in aqueous phosphate buffer at pH 2; assay type: physicochemical; settings: read-out: Therm_solubility
[17] = system: Brain; experiment: Ex vivo receptor occupancy at GluN2B receptor in Sprague-Dawley rat brain at 10 mg/kg, po measured after 6 hrs by 3 [3H] 1-(azetidin- 1-yl-2[6-(4-fluoro-3-methyl-pheny)pyrrolo[3,2-b]pyridin-1-yl]ethanon based autoradiography relative to control; assay type: functional
[18] = Thermodynamic solubility in aqueous phosphate buffer at pH 7; assay type: physicochemical; settings: read-out: Therm_solubility
[19] = Oral bioavailability in Sprague-Dawley rat at 5 mg/kg measured for 24 hrs by LC-MS/MS analysis; assay type: ADME, organism-based; settings: in vivo
[20] = target: Glutamate receptor ionotropic, NMDA 2A (Homo sapiens, UniProt Q05586+Q12879); experiment: Inhibition of human GluN2A receptor by FLIPR assay
[21] = Unbound brain to plasma concentration ratio in Sprague-Dawley rat at 10 mg/kg, po measured after 2 hrs; assay type: ADME, organism-based; settings: brain and plasma, read-out: K(p,uu,brain)
[22] = target: Cytochrome P450 2C9 (Homo sapiens, UniProt P11712); experiment: Inhibition of CYP2C9 in human liver microsomes incubated for 10 mins by LC-MS/MS analysis; assay type: ADME, Microsome
[23] = Drug concentration in Sprague-Dawley rat brain assessed as free fraction; assay type: ADME, tissue-based
[24] = Metabolic stability in rat liver microsomes assessed as extraction ratio; assay type: ADME, Microsome; settings: read-out: ERH
[25] = Drug concentration in Sprague-Dawley rat brain at 10 mg/kg, po measured after 0.5 hrs; assay type: ADME, organism-based; settings: read-out: Ct
[26] = Unbound brain to plasma concentration ratio in Sprague-Dawley rat at 10 mg/kg, po measured after 0.5 hrs; assay type: ADME, organism-based; settings: brain and plasma, read-out: K(p,uu,brain)
[27] = target: T1, Cytochrome P450 2C8 (Homo sapiens, UniProt P10632); experiment: Inhibition of CYP2C8 in human liver microsomes incubated for 10 mins by LC-MS/MS analysis; assay type: ADME, Microsome
T1 sequence (P10632 whole entry): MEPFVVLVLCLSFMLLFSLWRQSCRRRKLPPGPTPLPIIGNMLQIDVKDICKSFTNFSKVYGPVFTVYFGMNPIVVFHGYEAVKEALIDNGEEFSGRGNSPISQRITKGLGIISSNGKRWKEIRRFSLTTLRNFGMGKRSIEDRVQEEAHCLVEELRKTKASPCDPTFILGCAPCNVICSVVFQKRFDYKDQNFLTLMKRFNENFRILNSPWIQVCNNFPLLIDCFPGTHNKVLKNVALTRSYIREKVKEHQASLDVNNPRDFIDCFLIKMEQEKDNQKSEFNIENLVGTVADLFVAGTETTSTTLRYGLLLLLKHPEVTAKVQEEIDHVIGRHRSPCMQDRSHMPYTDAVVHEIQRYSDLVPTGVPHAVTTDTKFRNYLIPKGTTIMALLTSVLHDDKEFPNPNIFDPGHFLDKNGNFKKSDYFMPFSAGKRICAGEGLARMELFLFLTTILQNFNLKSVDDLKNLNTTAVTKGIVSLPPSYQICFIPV

[28] = target: T2, Cytochrome P450 1A2 (Homo sapiens, UniProt P05177); experiment: Inhibition of CYP1A2 in human liver microsomes incubated for 10 mins by LC-MS/MS analysis; assay type: ADME, Microsome
T2 sequence (P05177 whole entry): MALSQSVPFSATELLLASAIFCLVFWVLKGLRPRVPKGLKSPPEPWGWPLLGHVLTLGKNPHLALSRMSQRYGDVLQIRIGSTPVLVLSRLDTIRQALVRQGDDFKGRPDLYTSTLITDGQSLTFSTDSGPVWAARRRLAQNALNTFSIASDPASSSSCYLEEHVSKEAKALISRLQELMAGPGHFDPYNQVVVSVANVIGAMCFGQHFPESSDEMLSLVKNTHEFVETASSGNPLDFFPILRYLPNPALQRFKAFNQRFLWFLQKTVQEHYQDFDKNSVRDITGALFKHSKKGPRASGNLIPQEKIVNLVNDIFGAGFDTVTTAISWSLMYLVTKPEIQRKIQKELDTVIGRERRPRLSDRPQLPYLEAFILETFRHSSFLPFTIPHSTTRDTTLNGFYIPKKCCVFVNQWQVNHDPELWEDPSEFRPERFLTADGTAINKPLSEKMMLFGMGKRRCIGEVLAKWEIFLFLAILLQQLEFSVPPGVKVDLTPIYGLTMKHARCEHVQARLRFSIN

[29] = target: Glutamate receptor ionotropic, NMDA 2C (Homo sapiens, UniProt Q05586+Q14957); experiment: Inhibition of human GluN2C receptor by FLIPR assay
[30] = Metabolic stability in human liver microsomes assessed as extraction ratio; assay type: ADME, Microsome; settings: read-out: ERH
[31] = system: MDR1 (P-gp); experiment: Efflux ratio of apparent permeability from basolateral to apical side over apical to basolateral side in MDCK-MDR1 cells at 5 uM incubated for 60 mins by LC-MS/MS analysis; assay type: ADME, cell-based, Canis lupus familiaris; settings: dog
[32] = Plasma protein binding in Sprague-Dawley rat assessed as free fraction; assay type: ADME, cell-free
[33] = Drug metabolism in rat liver microsomes assessed as O-dearylation mediated metabolite formation; assay type: ADME, Microsome
[34] = system: Hippocampus; experiment: Ex vivo receptor occupancy at GluN2B receptor in Sprague-Dawley rat hippocampus administered orally and measured after 2 hrs by 3-[3H] 1-(azetidin- 1-yl-2[6-(4-fluoro-3-methyl-pheny)pyrrolo[3,2-b]pyridin-1-yl]ethanon based autoradiography; assay type: functional; settings: route po
[35] = Solubility in aqueous buffer at pH 2; assay type: physicochemical
[36] = Drug metabolism in human liver microsomes assessed as acid metabolite 2-((1-(3-(difluoromethoxy)-4-fluorophenyl)-1H-1,2,3-triazol-4-yl)methoxy)pyrimidine-5-carboxylic acid formation; assay type: ADME, Microsome
[37] = Solubility in aqueous buffer at pH 7; assay type: physicochemical
[38] = Drug metabolism in human liver microsomes assessed as O-dearylation mediated metabolite formation; assay type: ADME, Microsome
[39] = target: Glutamate NMDA receptor; GRIN1/GRIN2B (Homo sapiens, UniProt Q05586+Q13224); experiment: Negative allosteric modulation of human GluN1A/GluN2B receptor expressed in T-REX-CHO cells preincubated for 5 mins followed by glutamate and glycine addition and measured after 5 mins by FLIPR assay; assay type: cell-based
Chain of Glutamate NMDA receptor; GRIN1/GRIN2B (Q13224 whole entry, other chains not shown): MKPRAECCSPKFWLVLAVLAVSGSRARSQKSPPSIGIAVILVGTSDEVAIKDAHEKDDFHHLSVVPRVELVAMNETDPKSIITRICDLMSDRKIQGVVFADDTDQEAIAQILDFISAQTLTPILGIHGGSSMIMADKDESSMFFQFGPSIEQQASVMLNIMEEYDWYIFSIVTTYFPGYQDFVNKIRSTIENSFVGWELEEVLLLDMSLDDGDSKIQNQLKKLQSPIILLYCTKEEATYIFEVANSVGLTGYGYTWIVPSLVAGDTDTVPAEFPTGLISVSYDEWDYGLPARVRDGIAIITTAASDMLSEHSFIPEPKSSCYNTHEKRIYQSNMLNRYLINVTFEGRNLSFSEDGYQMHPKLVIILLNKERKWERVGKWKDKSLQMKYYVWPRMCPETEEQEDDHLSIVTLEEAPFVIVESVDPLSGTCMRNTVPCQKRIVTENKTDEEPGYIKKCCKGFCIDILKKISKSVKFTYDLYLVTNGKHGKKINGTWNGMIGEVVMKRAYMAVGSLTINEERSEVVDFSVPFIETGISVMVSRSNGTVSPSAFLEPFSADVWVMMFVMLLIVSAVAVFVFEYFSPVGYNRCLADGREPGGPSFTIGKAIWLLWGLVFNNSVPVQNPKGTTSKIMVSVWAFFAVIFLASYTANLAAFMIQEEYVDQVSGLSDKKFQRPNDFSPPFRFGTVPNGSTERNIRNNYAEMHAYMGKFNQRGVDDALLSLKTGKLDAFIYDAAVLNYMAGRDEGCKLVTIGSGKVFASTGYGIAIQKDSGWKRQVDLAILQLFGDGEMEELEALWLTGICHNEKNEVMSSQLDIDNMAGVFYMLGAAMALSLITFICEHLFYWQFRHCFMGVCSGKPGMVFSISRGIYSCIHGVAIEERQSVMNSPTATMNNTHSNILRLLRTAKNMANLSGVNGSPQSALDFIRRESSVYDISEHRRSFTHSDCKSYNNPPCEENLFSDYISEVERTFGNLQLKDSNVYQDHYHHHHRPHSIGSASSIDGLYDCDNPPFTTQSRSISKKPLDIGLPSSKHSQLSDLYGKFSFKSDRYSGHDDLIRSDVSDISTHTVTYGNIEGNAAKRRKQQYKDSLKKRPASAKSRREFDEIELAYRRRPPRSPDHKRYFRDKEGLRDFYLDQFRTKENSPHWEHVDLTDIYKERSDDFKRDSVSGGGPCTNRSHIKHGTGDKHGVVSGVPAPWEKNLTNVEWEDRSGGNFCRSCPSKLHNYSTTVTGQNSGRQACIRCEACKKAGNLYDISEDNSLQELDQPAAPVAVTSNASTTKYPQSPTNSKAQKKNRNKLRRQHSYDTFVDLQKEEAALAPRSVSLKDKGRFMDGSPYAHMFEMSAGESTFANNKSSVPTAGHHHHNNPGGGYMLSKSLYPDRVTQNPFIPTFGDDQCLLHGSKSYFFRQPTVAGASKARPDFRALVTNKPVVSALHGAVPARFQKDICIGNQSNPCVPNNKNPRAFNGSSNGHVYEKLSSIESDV

[40] = Drug metabolism in human liver microsomes assessed as hydroxylated metabolite (2-((1-(3-(difluoromethoxy)-4-fluorophenyl)-1H-1,2,3-triazol-4-yl)methoxy)pyrimidin-5-yl)methanol formation; assay type: ADME, Microsome
[41] = Drug metabolism in rat liver microsomes assessed as acid metabolite 2-((1-(3-(difluoromethoxy)-4-fluorophenyl)-1H-1,2,3-triazol-4-yl)methoxy)pyrimidine-5-carboxylic acid formation; assay type: ADME, Microsome
[42] = Drug metabolism in rat liver microsomes assessed as hydroxylated metabolite (2-((1-(3-(difluoromethoxy)-4-fluorophenyl)-1H-1,2,3-triazol-4-yl)methoxy)pyrimidin-5-yl)methanol formation; assay type: ADME, Microsome

pIC50 [1]: < 5.00
Vdss [2]: 0.4 L/kg
concentration at 0.5 h [4]: 1980 ng/mL
pIC50 [5]: < 5.00
Cmax [6]: 1630 ng/mL
pKi [7]: 7.49
pIC50 [8]: < 5.00
concentration at 2 h [9]: 235 ng/mL
concentration at 6 h [13]: 6.7 ng/mL
concentration at 2 h [14]: 47 ng/g
pIC50 [15]: < 5.00
solubility thermodynamic [16]: 280 µM (≈ 107 µg/mL)
solubility thermodynamic [18]: 260 µM (≈ 99.1 µg/mL)
bioavailability [19]: 42%
pIC50 [20]: < 5.00
Kp uu at 2 h [21]: 0.76
pIC50 [22]: < 5.00
fraction unbound [23]: 0.0882
hepatic extraction ratio [24]: 0.6
concentration at 0.5 h [25]: 340 ng/g
Kp uu at 0.5 h [26]: 0.65
pIC50 [27]: < 5.00
pIC50 [28]: < 5.00
pIC50 [29]: < 5.00
hepatic extraction ratio [30]: 0.47
efflux ratio at 1 h, 5 µM [31]: 1.1
fraction unbound [32]: 0.0236
SMILES: COCc1ccnc(OCc2cn(-c3ccc(F)c(OC(F)F)c3)nn2)n1
Occ [3]: 54%
ED50 [10]: 1.7 mg/kg
pIC50 [11]: < 5.00
Occ [12]: 77%
Occ [17]: 8%

Drug metabolism [33]: Metabolite_Notdetected
solubility [35]: 7.6 µM (≈ 2.67 µg/mL)
pKi [7]: 8.05
Drug metabolism [36]: Metabolite_Detected
solubility [37]: 7.6 µM (≈ 2.67 µg/mL)
Drug metabolism [38]: Metabolite_Notdetected
pIC50 [39]: 8.46
Drug metabolism [40]: Metabolite_Detected
hepatic extraction ratio [24]: 0.37
Drug metabolism [41]: Metabolite_Detected
Drug metabolism [42]: Metabolite_Detected
hepatic extraction ratio [30]: 0.57
efflux ratio at 1 h, 5 µM [31]: 0.8
SMILES: Cc1cnc(OCc2cn(-c3ccc(F)c(OC(F)F)c3)nn2)nc1
ED50 [34]: 1.7 mg/kg
pIC50 [11]: < 5.00
